Assay results: patent US9944613B2, “Fumagillol spirocyclic compounds and fused bicyclic compounds and methods of making and using same” (Zafgen, Inc., priority 2015, dated 2018)

Columns and labels:
[1] = tested on: human fibrosarcoma cell line HT-1080; experiment: HT-1080 cell growth inhibition (CellTiter-Glo, 72 hours); type: cell-based; settings: HT-1080 cells, 72 hours incubation
Experimental: The human fibrosarcoma cell line HT-1080 were grown to almost complete confluence in T75 tissue culture flasks in preparation for the experiment. The cells were trypsinised and re-suspended in complete medium using DMEM plus 9% FBS including penicillin/streptomycin supplements. 500 cells in a total volume of 25 μl were seeded into black walled 384 well plates and returned to a CO2 incubator over-night. Compounds and standards were prepared at 333.3× actual test concentration in neat DMSO. 10 point dose response curves of test compounds were generated by 1:3 serial dilutions, 2 μl of DMSO stock was transferred to 109 μl complete medium. This was further diluted 1:6 in complete medium, with 5 μl of the resulting solution added to the incubated 384 well plate. […] For experimental blanks at the start of the experiment, CellTiter-Glo was added to a satellite plate of cells (identical to the experimental plate), when adding compounds on Day 1. The average of these wells is used as the blanks in the calculation template. […] Luminescence per well was determined using an EnVision 2104 Multilabel Reader (PerkinElmer) or other suitable reader. The compound blank value recorded on Day 1 is subtracted from all other data. […] The EC50 values are determined from a sigmoidal 4 parameter curve fit using XLfit in conjunction with Activity Base (IDBS; Guildford, Surrey, UK). […]

[2] = tested on: rat DIO model (Sprague Dawley rats on high fat diet); experiment: 11 day rat DIO model, weight loss vs. vehicle; type: in vivo; settings: for inhibition in vivo at 0.3 mg/kg: Rattus norvegicus, 264 h, 0.3 mpk sc once a day for 11 days
Source text: The objective of this study design is to investigate the efficacy of disclosed compounds in an 11 day rat DIO model used to screen compounds for pharmacologic efficacy on endpoints related to obesity and metabolism. Effects on body weight, food intake, hematology and blood chemistries were the primary readouts of this study design. Male Sprague Dawley rats, approximately 8 weeks of age, were ordered from a certified vendor and housed on irradiated corncob bedding in micro-isolator cages, on a 12-hour light-dark cycle (0700-1900) at 68-74° F. and 30-70% humidity. Rats were fed Research Diets D12451 (45% High Fat) and provided water ad libitum. Rats were received and housed in the facility for at least two or three weeks prior to start of test article administration. On Day −4 or −3, rats were randomized into study groups based on body weight and body weights were continued to be recorded daily for the duration of the study. Daily food intake was assessed starting on Study Day −2 by weighing the hopper including the food to avoid loss of food in transfer.
Compounds were formulated into a 100% DMSO stock (at 9 mg/mL) prior to the start, and further diluted into the target working concentration using the vehicle of 10% DMSO in water. Prior to test article administration, starting on Day −3 a dosing acclimation occured with all animals receiving a subcutaneous injection of vehicle (10% DMSO) only for 3 days. Starting on Day 1, test compounds or vehicle were administered based on individual body weight, subcutaneously, once a day for 11 days. All animals were sacrificed on Day 11, approximately 2 hours following the final dosing on Day 11. After sacrifice, whole blood was collected and analyzed for hematology and blood chemistry parameters.
Compounds were tested for weight loss vs. vehicle at 0.3 and 1.0 mpk sc (mg per kg animal weight delivered subcutaneously), and the results are shown in Table 2 below.

[3] = tested on: Diet Induced Obese (DIO) C57BL/6 mice; experiment: 10 day DIO mouse model, weight loss vs. vehicle; type: in vivo; settings: 240 h, 0.3 mpk sc once a day for 10 days
[4] = tested on: pregnant Sprague Dawley rats (embryo/fetal development); experiment: Rat embryofetal development study; type: in vivo; settings: 6 mpk subcutaneously once every three days, Gestation Days 6-18, pregnant rats
Source text: Study Summary Rat Embryofetal:
The objective of this study design was to evaluate the potential effects of disclosed compounds on embryo/fetal development when given subcutaneously to pregnant rats once every three days during the critical period of organogenesis (Gestation Days 6-18). Female, Sprague Dawley rats, approximately 10 weeks of age, time bred, were ordered from a certified vendor and housed individually housed in stainless steel cages suspended over flush pans, on a 12-hour light-dark cycle (0700-1900) at 20-26° C. and 30-70% humidity. Rats were fed a standard rodent chow and provided water ad libitum. Rats were received and housed in the facility for a period of approximately 1 to 2 days.
Compounds were formulated using 100% DMSO mixed in Sterile Water for Injection, resulting in 2% DMSO solution in water. If necessary, due to limited solubility of a test article, a higher percentage of DMSO solution in water was used. Groups of 8 mated and presumed pregnant female rats were given subcutaneous doses of vehicle or test article, once every three days, beginning on Gestation Day 6 and ending on Gestation Day 18 (Days 6, 9, 12, 15, and 18), maintained two more days, and then euthanized and necropsied on Gestation Day 20. Body weights was recorded for all animals on Gestation Days 5 (purpose of randomization), 6, 9, 12, 15, 18, and 20 (scheduled euthanasia). Food consumption by weight was recorded on Gestation Days 6, 9, 12, 15, 18, and 20 (scheduled termination).
At necropsy, the dams were examined visually for external abnormalities including palpable masses. The abdominal, thoracic, and cranial cavities and their contents were examined for abnormalities and findings will be recorded. The reproductive tract were examined to record the number of ovarian corpora lutea, the number and location of uterine implantation sites noting the position of the cervix, and the number of early resorptions, late resorptions, live fetuses, and dead fetuses. For dead fetuses and late resorptions, crown-to-rump length and weight were recorded, if possible, and the fetus was discarded. For viable fetuses, weight, sex, and grossly visible external abnormalities were recorded.

recombinant human MetAP2 = molecular target: T1, recombinant human MetAP2 (Homo sapiens, UniProt P50579); experiment: Inhibition of recombinant human MetAP2 activity (MAS peptide / amino acid oxidase / Amplex assay); type: biochemical; settings: Flag tagged human recombinant MetAP2, 25 minutes at 25° C.; read-out: MetAP2 IC50
T1 construct: Flag; made in house
Experimental: Compounds are tested for their capacity to inhibit recombinant human MetAP2 activity using the following assay.
Flag tagged Human recombinant MetAP2 expressed and isolated for use as the enzyme source. 10 mM stock solutions of compounds were prepared in 100% DMSO and further diluted in 100% DMSO required concentration to 1 mM stocks. The stock compound solutions and DMSO vehicle controls were diluted to target final compound concentrations using assay buffer to a final concentration of 50 mM HEPES containing 100 mM NaCl, pH adjusted to 7.5. The MAS peptide was formulated to a 7.5 mM stock in distilled water and prior to use further diluted 1:4. […] 40 μl of enzyme was mixed with 100 μl of MnCl2 then further diluted in assay buffer to a final concentration of 16 μg/ml. To test for compound effect on MetAP2 enzyme activity, 5 μl of test compound, 10 μl of MAS substrate/amino acid oxidase mixture, 10 μl of MetAP2 was added to test wells in a 384 well black plate with blank wells containing no enzyme, replaced with 10 μl of assay buffer. All compounds were tested in duplicate on two occasions on the same day.
The plate was sealed with a TopSeal A cover and mixed briefly on an orbital mixer at 900 rpm. The plate was incubated for a further 25 minutes at 25° C. A 5× stock of Amplex buffer was prepared (0.25M sodium phosphate, pH 7.4) and stored at 4° C. When preparing for use the stock was diluted with distilled water. […] Horse radish peroxidase was diluted in […] of Amplex buffer, 100 μl of this was combined with 50 μl of Amplex Ultrared in […] of 1× Amplex buffer to generate sufficient detection reagent for a 384 well plate. 25 μl detection reagent was added to each well of the test plate, which was re-sealed and mixed briefly on an orbital shaker. The plate was transferred to an Envision Multi-label reader and RFU measured corresponding to excitation 531 nm and emission 595 nm. At the end of the MetAP2 incubation 25 μl Amplex/HRP mixture per well was added and the plate read plate on a plate reader.

T1 sequence (P50579 whole entry): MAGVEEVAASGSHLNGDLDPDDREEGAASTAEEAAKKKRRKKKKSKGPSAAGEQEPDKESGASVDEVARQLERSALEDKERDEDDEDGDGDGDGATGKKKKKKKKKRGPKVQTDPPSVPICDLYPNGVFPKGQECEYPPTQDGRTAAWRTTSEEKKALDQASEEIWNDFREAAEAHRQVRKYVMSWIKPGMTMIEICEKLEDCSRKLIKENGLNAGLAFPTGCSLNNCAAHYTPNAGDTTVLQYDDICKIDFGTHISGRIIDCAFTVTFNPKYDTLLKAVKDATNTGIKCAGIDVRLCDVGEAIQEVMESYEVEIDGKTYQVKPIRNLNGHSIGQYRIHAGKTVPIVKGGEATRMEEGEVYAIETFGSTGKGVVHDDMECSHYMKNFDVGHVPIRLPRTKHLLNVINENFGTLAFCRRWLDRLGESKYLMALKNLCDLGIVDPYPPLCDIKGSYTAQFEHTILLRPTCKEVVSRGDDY

| Structure (SMILES) | EC50 [1] [nM] | inhibition in vivo at 0.3 mg/kg [2] [%] | inhibition in vivo at 0.3 mg/kg [3] [%] | Rat Embryofetal @6 mpk [4] | IC50 (recombinant human MetAP2) [nM] | Rat @ 1.0 mpk sc (%) ([2]; 1.0 mpk sc once a day for 11 days) |
| --- | --- | --- | --- | --- | --- | --- |
| CO[C@@H]1[C@H](OC(=O)/C=C/c2ccc(OCCN(C)C)cc2)CC[C@]2(CO2)[C@H]1[C@@]1(C)O[C@@H]1CC=C(C)C [compound A, [(3R,6R,7S,8S)-7-methoxy-8-[(2R,3R)-2-methyl-3-(3-methylbut-2-enyl)oxiran-2-yl]-2-oxaspiro[2.5]octan-6-yl] (E)-3-[4-[2-(dimethylamino)ethoxy]phenyl]prop-2-enoate, reference compound] | 0.5 to 1 | 20 | 18 | Positive |  |  |
| CO[C@@H]1[C@H](OC(=O)N2CC3(COC3)C2)CC[C@]2(CO2)[C@H]1[C@@]1(C)O[C@@H]1CC=C(C)C [Example 2, (3R,4S,5S,6R)-5-methoxy-4-((2R,3R)-2-methyl-3-(3-methylbut-2-enyl)oxiran-2-yl)-1-oxaspiro[2.5]octan-6-yl 2-oxa-6-azaspiro[3.3]heptane-6-carboxylate] |  | 8 | 11.1 | Positive | < 50 | 10.2 |
| CO[C@@H]1[C@H](OC(=O)N2CCC3(COC3)C2)CC[C@]2(CO2)[C@H]1[C@@]1(C)O[C@@H]1CC=C(C)C [Example 4, (3R,4S,5S,6R)-5-methoxy-4-((2R,3R)-2-methyl-3-(3-methylbut-2-en-1-yl)oxiran-2-yl)-1-oxaspiro[2.5]octan-6-yl 2-oxa-6-azaspiro[3.4]octane-6-carboxylate] | < 0.5 |  | 15.4 | Negative | < 50 |  |
| CO[C@@H]1[C@H](OC(=O)N2CC3C(C2)C3(F)F)CC[C@]2(CO2)[C@H]1[C@@]1(C)O[C@@H]1CC=C(C)C (stereo partly drawn) [Example 22, (3R,4S,5S,6R)-5-methoxy-4-((2R,3R)-2-methyl-3-(3-methylbut-2-enyl)oxiran-2-yl)-1-oxaspiro[2.5]octan-6-yl 6,6-difluoro-3-azabicyclo[3.1.0]hexane-3-carboxylate] |  |  | 15.5 | Negative | < 50 |  |
